Data published in patent publication US20190375708A1 (VenatoRx Pharmaceuticals, Inc., priority 2018, published 2019).
pEC50: −log10 of the molar value.

Legend:
[1] = test system: HBV replication in HepAD38 cells; assay: Anti-HBV replication assay in HepAD38 cells (QPCR of extracellular HBV DNA); assay type: cell-based, HBV (genotype D, serotype ayw); details: Hepatitis B virus, 168 h, 7 days incubation, extracellular HBV DNA by QPCR, read-out: Anti-HBV EC50
Method in brief: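 HepAD38 cells (HepG2 carrying a tet-repressible HBV genotype D genome) were seeded in tetracycline-free medium and treated next day with compound […] for 7 days. Supernatant HBV DNA was measured by QPCR against a standard curve; EC50 came from 4-parameter fits of inhibition versus DMSO control.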

[2] = In vitro cytotoxicity assay (MTT cell viability) in HepG2 cells; assay type: cell-based, human; details: human
Method in brief: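 CC50 values reflect loss of HepG2 viability after a 7-day exposure at 37 °C, 5% CO2. After 3-4 h with MTT, solubilized formazan was quantified at 492 nm relative to vehicle wells.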

Row | SMILES | pEC50 [1] | CC50 at 7 days [2]
1 | Cc1nnc(NC(=O)C(=O)c2c(C)c(C(=O)Nc3ccc(F)c(C)c3)c(C)n2C)o1 [Example 305, N-(4-fluoro-3-methylphenyl)-1,2,4-trimethyl-5-(2-((5-methyl-1,3,4-oxadiazol-2-yl)amino)-2-oxoacetyl)-1H-pyrrole-3-carboxamide] | < 6.00 | > 30000 nM
2 | Cc1cc(NC(=O)c2cc(C(=O)C(=O)NC3(CO)CCC3)n3c2CCCC3)ccc1F [Example 410, N-(4-fluoro-3-methylphenyl)-3-(2-((1-(hydroxymethyl)cyclobutyl)amino)-2-oxoacetyl)-5,6,7,8-tetrahydroindolizine-1-carboxamide] | 6.30 to 7.30 | > 30000 nM
3 | Cc1cc(NC(=O)c2c(C)c(C(=O)C(=O)Nc3ccn(C)n3)n(C)c2C)ccc1F [Example 306, N-(4-fluoro-3-methylphenyl)-1,2,4-trimethyl-5-(2-((1-methyl-1H-pyrazol-3-yl)amino)-2-oxoacetyl)-1H-pyrrole-3-carboxamide] | > 7.30 | > 30000 nM
4 | Cc1cc(NC(=O)c2c(C)c(C(=O)C(=O)NC(C)(C)CO)n(C)c2Cl)ccc1F [Example 391, 2-chloro-N-(44-fluoro-3-methylphenyl)-5-(2-((1-hydroxy-2-methylpropan-2-yl)amino)-2-oxoacetyl)-1 4-dimethyl-1H-pyrrole-3-carboxamide] | < 6.00 | > 30000 nM
5 | Cc1cc(NC(=O)c2c(C)c(C(=O)C(=O)N[C@@H]3CC[C@H](O)[C@@H]3O)n(C)c2C)ccc1F [Example 152, 5-(2-(((1R,2R,3S)-2,3-dihydroxycyclopentyl)amino)-2-oxoacetyl)-N-(4-fluoro-3-methylphenyl)-1,2,4-trimethyl-1H-pyrrole-3-carboxamide] | > 7.30 | > 30000 nM
6 | Cc1c(C(=O)Nc2ccnc(Cl)c2)c(C)n(C)c1C(=O)C(=O)NC1(C)CCOCC1 [Example 326, N-(2-chloropyridin-4-yl)-1,2,4-trimethyl-5-(2-((4-methyltetrahydro-2H-pyran-4-yl)amino)-2-oxoacetyl)-1H-pyrrole-3-carboxamide] | > 7.30 | > 30000 nM
7 | Cc1noc([C@H](C)NC(=O)C(=O)c2c(C)c(C(=O)Nc3ccc(F)c(C)c3)c(C)n2C)n1 [Example 215, (S)-N-(4-fluoro-3-methylphenyl)-1,2,4-trimethyl-5-(2-((1-(3-methyl-1,2,4-oxadiazol-5-yl)ethyl)amino)-2-oxoacetyl)-1H-pyrrole-3-carboxamide] | > 7.30 | > 30000 nM
8 | Cc1noc(C(NC(=O)C(=O)c2c(C)c(C(=O)Nc3ccc(F)c(C)c3)c(C)n2C)C(C)C)n1 (stereo not drawn) [Example 81, N-(4-fluoro-3-methylphenyl)-1,2,4-trimethyl-5-(2-((2-methyl-1-(3-methyl-1,2,4-oxadiazol-5-yl)propyl)amino)-2-oxoacetyl)-1H-pyrrole-3-carboxamide] | > 7.30 | > 30000 nM
9 | Cc1c(C(=O)NC2CCCC2)c2n(c1C(=O)C(=O)NC1(CO)CCC1)CCCC2 [Example 746, N-cyclopentyl-3-(2-((1-(hydroxymethyl)cyclobutyl)amino)-2-oxoacetyl)-2-methyl-5,6,7,8-tetrahydroindolizine-1-carboxamide] | 6.30 to 7.30 | > 30000 nM
10 | Cc1cc(NC(=O)c2c(C)c(C(=O)C(=O)NCC(C)(C)O)n(C)c2Cl)ccc1F [Example 388, 2-chloro-N-(4-fluoro-3-methylphenyl)-5-(2-((2-hydroxy-2-methylpropyl)amino)-2-oxoacetyl)-1,4-dimethyl-1H-pyrrole-3-carboxamide] | < 6.00 | 5000 to 30000 nM
11 | Cc1cc(NC(=O)c2c(C)c(C(=O)C(=O)NC(C)(C)CO)n(C)c2C)ccc1F [Example 8, N-(4-fluoro-3-methylphenyl)-5-(2-((1-hydroxy-2-methylpropan-2-yl)amino)-2-oxoacetyl)-1,2,4-trimethyl-1H-pyrrole-3-carboxamide] | > 7.30 | > 30000 nM
12 | Cc1cc(NC(=O)c2c(C)c(C(=O)C(=O)NC3CCN(c4ccncc4)CC3)n(C)c2C)ccc1F [Example 662, N-(4-fluoro-3-methylphenyl)-1,2,4-trimethyl-5-(2-oxo-2-((1-(pyridin-4-yl)piperidin-4-yl)amino)acetyl)-1H-pyrrole-3-carboxamide] | > 7.30 | > 30000 nM
13 | Cc1cc(NC(=O)c2c(C)c(C(=O)C(=O)N[C@@H](CO)C(=O)O)n(C)c2C)ccc1F [Example 32, (2-(4-((4-fluoro-3-methylphenyl)carbamoyl)-1,3,5-trimethyl-1H-pyrrol-2-yl)-2-oxoacetyl)-L-serine] | < 6.00 | > 30000 nM
14 | Cc1cc(NC(=O)c2c(C)c(C(=O)C(=O)N[C@H](C)CO)n(C)c2C)ccc1F [Example 219, (R)-N-(4-fluoro-3-methylphenyl)-5-(2-((1-hydroxypropan-2-yl)amino)-2-oxoacetyl)-1,2,4-trimethyl-1H-pyrrole-3-carboxamide] | > 7.30 | > 30000 nM
15 | Cc1cc(NC(=O)c2c(C)c(C(=O)C(=O)NCCN3CCNC(=O)C3)n(C)c2C)ccc1F [Example 300, N-(4-fluoro-3-methylphenyl)-1,2,4-trimethyl-5-(2-oxo-2-((2-(3-oxopiperazin-1-yl)ethyl)amino)acetyl)-1H-pyrrole-3-carboxamide] | 6.30 to 7.30 | > 30000 nM
16 | Cc1cc(NC(=O)c2c(C)c(C(=O)C(=O)N3CCC(O)CC3)n(C)c2C)ccc1F [Example 47, N-(4-fluoro-3-methylphenyl)-5-(2-(4-hydroxypiperidin-1-yl)-2-oxoacetyl)-1,2,4-trimethyl-1H-pyrrole-3-carboxamide] | 6.30 to 7.30 | 500 to 4990 nM
17 | Cc1cc(NC(=O)c2c(C)c(C(=O)C(=O)N[C@@H]3c4ccccc4C[C@H]3O)n(C)c2C)ccc1F [Example 261, N-(4-fluoro-3-methylphenyl)-5-(2-(((1R,2R)-2-hydroxy-2,3-dihydro-1H-inden-1-yl)amino)-2-oxoacetyl)-1,2,4-trimethyl-1H-pyrrole-3-carboxamide] | > 7.30 | 500 to 4990 nM
18 | Cc1nc2c(s1)C(NC(=O)C(=O)c1c(C)c(C(=O)Nc3ccnc(F)c3)c(C)n1C)CCC2 (stereo not drawn) [Example 607, N-(2-fluoropyridin-4-yl)-1,2,4-trimethyl-5-(2-((2-methyl-4,5,6,7-tetrahydrobenzo[d]thiazol-7-yl)amino)-2-oxoacetyl)-1H-pyrrole-3-carboxamide] | > 7.30 | > 30000 nM
19 | Cc1cc(NC(=O)c2c(C)c(C(=O)C(=O)NC(C)CN3CCOCC3)n(C)c2C)ccc1F (stereo not drawn) [Example 290, N-(4-fluoro-3-methylphenyl)-1,2,4-trimethyl-5-(2-((1-morpholinopropan-2-yl)amino)-2-oxoacetyl)-1H-pyrrole-3-carboxamide] | > 7.30 | > 30000 nM
20 | Cc1c(C(=O)Nc2ccnc(F)c2)c(C)n(C)c1C(=O)C(=O)N[C@@H](C)C(F)(F)F [Example 274, (S)-N-(2-fluoropyridin-4-yl)-1,2,4-trimethyl-5-(2-oxo-2-((1,1,1-trifluoropropan-2-yl)amino)acetyl)-1H-pyrrole-3-carboxamide] | > 7.30 | > 30000 nM
21 | Cc1c(C(=O)NC2(C)CCCC2)c2n(c1C(=O)C(=O)NC1(CO)CCC1)CCCC2 [Example 745, 3-(2-((1-(hydroxymethyl)cyclobutyl)amino)-2-oxoacetyl)-2-methyl-N-(1-methylcyclopentyl)-5,6,7,8-tetrahdyroindolizine-1-carboxamide] | 6.30 to 7.30 | > 30000 nM
22 | CC(C)(O)CNC(=O)C(=O)c1c(Cl)c(C(=O)Nc2ccc(F)c(F)c2)c2n1CCC2 [Example 560, 6-chloro-N-(3,4-difluorophenyl)-5-(2-((2-hydroxy-2-methylpropyl)amino)-2-oxoacetyl)-2,3-dihydro-1H-pyrrolizine-7-carboxamide] | > 7.30 | > 30000 nM
23 | Cc1c(C(=O)Nc2cc(F)c(F)c(F)c2)c(C)n(C)c1C(=O)C(=O)Nc1cccnc1 [Example 320, 1,2,4-trimethyl-5-(2-oxo-2-(pyridin-3-ylamino)acetyl)-N-(3,4,5-trifluorophenyl)-1H-pyrrole-3-carboxamide] | > 7.30 | > 30000 nM
24 | Cc1cc(NC(=O)c2c(C)c(C(=O)C(=O)N[C@H]3CC[C@@H](O)C3)n(C)c2C)ccc1F [Example 245, N-(4-fluoro-3-methylphenyl)-5-(2-(((1S,3R)-3-hydroxycyclopentyl)amino)-2-oxoacetyl)-1,2,4-trimethyl-1H-pyrrole-3-carboxamide] | > 7.30 | > 30000 nM
25 | CC[C@H](C)NC(=O)C(=O)c1c(Cl)c(C(=O)Nc2cnc(F)c(C)c2)c2n1CCC2 [Example 733, (S)-5-(2-(sec-butylamino)-2-oxoacetyl)-6-chloro-N-(6-fluoro-5-methylpyridin-3-yl)-2,3-dihydro-1H-pyrrolizine-7-carboxamide] | > 7.30 | 5000 to 30000 nM
26 | Cc1cc(NC(=O)c2c(C)c(C(=O)C(=O)N[C@H](C(=O)O)[C@@H](C)O)n(C)c2C)ccc1F [Example 34, (2-(4-((4-fluoro-3-methylphenyl)carbamoyl)-1,3,5-trimethyl-1H-pyrrol-2-yl)-2-oxoacetyl)-L-threonine] | < 6.00 | > 30000 nM
27 | Cc1cc(NC(=O)c2c(C)c(C(=O)C(=O)NC3(C)CC(F)(F)C3)n(C)c2C)cnc1F [Example 206, 5-(2-((3,3-difluoro-1-methylcyclobutyl)amino)-2-oxoacetyl)-N-(6-fluoro-5-methylpyridin-3-yl)-1,2,4-trimethyl-1H-pyrrole-3-c carboxamide] | > 7.30 | > 30000 nM
